In PubChem BioAssay AID2060912 (Molecular Pharmacology Branch, DTP, NCI, 2025):

Test system: HUVEC/MSC spheroids viability
Experiment: Human HUVEC/MSC cell line growth inhibition [KRAS2];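 on viability, T/C: percent of DMSO vehicle control luminescence so 100% = untreated viability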
Conditions: for IC50: curve of first compound; for viability, T/C: stronger effect = lower value
Source text: Multicellular complex tumor spheroid response to RAS pathway inhibitors in combination with a targeted agents in patient-derived cell lines with oncogenic KRAS variants from multiple cancer types
A high-throughput screen of multi-cell type tumor spheroids was designed to identify active combinations of targeted small molecules and KRAS pathway inhibitors. Complex spheroids include a stromal component modeled by human endothelial cells (HUVEC) and fibroblasts modeled by human mesenchymal stem cells (MSCs). The concentration ranges selected for each drug and investigational agent were based upon clinically achievable concentrations if the clinical Cmax of the agent was known. * [This particular assayID is a followup dataset requested by reviewers of the manuscript. It is a test of the HUVEC and MSC without the tumor cells, and was conducted using different drug plates and a different plate layout.]
Compounds. The drugs and investigational agents: BI-3406 (NSC825286), BAY-293 (NSC824723), batoprotafib (TNO155; NSC825523), sotorasib (AMG 510; NSC818433), MRTX1257 (NSC819558), elimusertib (BAY 1895344; NSC800525), molibresib (GSK525762; NSC774829), temuterkib (LY3214996; NSC803410), venetoclax (NSC766270), alisertib (NSC759677), olaparib (NSC753686), talazoparib (NSC767125), erdafitinib (NSC781556), ipatasertib (NSC767898), cabozantinib (NSC761068), nintedanib (NSC756659), abemaciclib (NSC768073), docetaxel (NSC628503), trametinib (NSC758246), and sapanisertib (NSC764658) were obtained from the National Cancer Institute (NCI) Developmental Therapeutics Program Chemical Repository. The FDA-approved anticancer drug set is available from the Developmental Therapeutics Program. […] The stock solutions were prepared in dimethyl sulfoxide (DMSO, Sigma-Aldrich, St. Louis, MO, cat. D2650) at 800-fold the tested concentration and stored at -70 degrees C prior to their use. All drugs and investigational agents were tested over a range starting from a high concentration at or near the clinical Cmax and decreasing in half-log increments. If the clinical Cmax for an agent had not been determined, the highest concentration tested was 10 microM.
Cell Culture. All cells were maintained in an incubator at 37 degrees C and 5% CO2 with 95% humidity. The PDC lines were cultured according to standard operating procedures established by the NCI PDMR (https://pdmr.cancer.gov/sops/default.htm). Briefly, all PDCs were thawed and cultured in Matrigel-coated flasks prepared with a working solution of 1X Ham's F-12 nutrient mix, without supplementation (Invitrogen, Waltham, MA, cat. 11765054), 100 U/mL penicillin-streptomycin (Invitrogen, cat. 15140122), and 2.5% Matrigel (Corning Inc., Corning, NY, cat. 354248) for the first three passages. All PDCs were cultured in complete DMEM/F-12 media containing advanced DMEM/F-12 (Invitrogen, cat. 12634028), 4.9% defined fetal bovine serum, heat inactivated (HyClone Laboratories Inc., Logan, UT, cat. SH30070.03HI), 389 ng/mL hydrocortisone (Sigma-Aldrich, cat. H4001), 9.7 ng/mL human EGF recombinant protein (Invitrogen, cat. PHG0313), 23.4 microg/mL adenine (Sigma-Aldrich, cat. A2786), 97.3 U/mL penicillin-streptomycin (Invitrogen, cat. 15140122), 1.9 mM L-glutamine (Invitrogen, cat. 25030081), and 9.7 microM Y-27632 dihydrochloride (Tocris Bioscience, Bristol, United Kingdom, cat. 1254). The PDCs were cultured in complete DMEM/F12 media without 9.7 microM Y-27632 dihydrochloride for at least two passages prior to the screen. The established cell line HOP-62 was cultured in RPMI 1640 medium, HEPES (Invitrogen, cat. 22400105) with 10% defined fetal bovine serum (HyClone Laboratories Inc., cat. SH30070.03) and 2 mM L-glutamine (Invitrogen, cat. 25030081). The pooled donor HUVEC were cultured in endothelial cell growth medium 2 (PromoCell, Heidelberg, Germany, cat. C-22011) and the hMSC were cultured in mesenchymal stem cell growth medium 2 (PromoCell, cat. C-28009). […]

[1] = second compound 0.0316 µM, first compound 0.0316 µM
[2] = second compound 0.0316 µM, first compound 0.1 µM
[3] = second compound 0.1 µM, first compound 0.0316 µM
[4] = second compound 0.1 µM, first compound 0.1 µM
[5] = second compound 0.316 µM, first compound 0.0316 µM
[6] = second compound 0.316 µM, first compound 0.1 µM
[7] = second compound 1 µM, first compound 0.0316 µM
[8] = second compound 1 µM, first compound 0.1 µM
[9] = second compound 3.16 µM, first compound 0.0316 µM
[10] = second compound 3.16 µM, first compound 0.1 µM
[11] = second compound 10 µM, first compound 0.0316 µM
[12] = second compound 10 µM, first compound 0.1 µM
[13] = second compound 0.0316 µM, first compound 0.316 µM
[14] = second compound 0.0316 µM, first compound 1 µM
[15] = second compound 0.0316 µM, first compound 3.16 µM
[16] = second compound 0.0316 µM, first compound 10 µM
[17] = second compound 0.1 µM, first compound 0.316 µM
[18] = second compound 0.1 µM, first compound 1 µM
[19] = second compound 0.1 µM, first compound 3.16 µM
[20] = second compound 0.1 µM, first compound 10 µM
[21] = second compound 0.316 µM, first compound 0.316 µM
[22] = second compound 0.316 µM, first compound 1 µM
[23] = second compound 0.316 µM, first compound 3.16 µM
[24] = second compound 0.316 µM, first compound 10 µM
[25] = second compound 1 µM, first compound 0.316 µM
[26] = second compound 1 µM, first compound 1 µM
[27] = second compound 1 µM, first compound 3.16 µM
[28] = second compound 1 µM, first compound 10 µM
[29] = second compound 3.16 µM, first compound 0.316 µM
[30] = second compound 3.16 µM, first compound 1 µM
[31] = second compound 3.16 µM, first compound 3.16 µM
[32] = second compound 3.16 µM, first compound 10 µM
[33] = second compound 10 µM, first compound 0.316 µM
[34] = second compound 10 µM, first compound 1 µM
[35] = second compound 10 µM, first compound 3.16 µM
[36] = second compound 10 µM, first compound 10 µM

## CC(C)n1nc(-c2ccc3oc(N)nc3c2)c2c(N)ncnc21 + C=CC(=O)N1CCN(c2nc(=O)n(-c3c(C)ccnc3C(C)C)c3nc(-c4c(O)cccc4F)c(F)cc23)C(C)C1
Second compound 0.0316 µM
  IC50: 0.00306 µM
Second compound 0.1 µM
  IC50: 0.00963 µM
Second compound 0.316 µM
  IC50: 0.1 µM
Second compound 1 µM
  IC50: > 0.1 µM
Second compound 3.16 µM
  IC50: > 0.1 µM
Second compound 10 µM
  IC50: > 0.1 µM
Second compound 0.0316 µM, first compound 0.000316 µM
  viability, T/C: 88.3%
Second compound 0.0316 µM, first compound 0.001 µM
  viability, T/C: 76.4%
Second compound 0.0316 µM, first compound 0.00316 µM
  viability, T/C: 48.8%
Second compound 0.0316 µM, first compound 0.01 µM
  viability, T/C: 49.7%
[1]
  viability, T/C: 43.2%
[2]
  viability, T/C: 44.1%
Second compound 0.1 µM, first compound 0.000316 µM
  viability, T/C: 88.7%
Second compound 0.1 µM, first compound 0.001 µM
  viability, T/C: 59.8%
Second compound 0.1 µM, first compound 0.00316 µM
  viability, T/C: 63.4%
Second compound 0.1 µM, first compound 0.01 µM
  viability, T/C: 48.5%
[3]
  viability, T/C: 50.4%
[4]
  viability, T/C: 36.2%
Second compound 0.316 µM, first compound 0.000316 µM
  viability, T/C: 79.4%
Second compound 0.316 µM, first compound 0.001 µM
  viability, T/C: 86.6%
Second compound 0.316 µM, first compound 0.00316 µM
  viability, T/C: 53.5%
Second compound 0.316 µM, first compound 0.01 µM
  viability, T/C: 52.5%
[5]
  viability, T/C: 64.4%
[6]
  viability, T/C: 50.6%
Second compound 1 µM, first compound 0.000316 µM
  viability, T/C: 94%
Second compound 1 µM, first compound 0.001 µM
  viability, T/C: 73.1%
Second compound 1 µM, first compound 0.00316 µM
  viability, T/C: 65%
Second compound 1 µM, first compound 0.01 µM
  viability, T/C: 51.9%
[7]
  viability, T/C: 65%
[8]
  viability, T/C: 53.5%
Second compound 3.16 µM, first compound 0.000316 µM
  viability, T/C: 86.2%
Second compound 3.16 µM, first compound 0.001 µM
  viability, T/C: 74.9%
Second compound 3.16 µM, first compound 0.00316 µM
  viability, T/C: 66.6%
Second compound 3.16 µM, first compound 0.01 µM
  viability, T/C: 60.6%
[9]
  viability, T/C: 62.3%
[10]
  viability, T/C: 56.4%
Second compound 10 µM, first compound 0.000316 µM
  viability, T/C: 75%
Second compound 10 µM, first compound 0.001 µM
  viability, T/C: 67.4%
Second compound 10 µM, first compound 0.00316 µM
  viability, T/C: 72.9%
Second compound 10 µM, first compound 0.01 µM
  viability, T/C: 76.3%
[11]
  viability, T/C: 60.4%
[12]
  viability, T/C: 54.9%

## CC1(C)CCC(CN2CCN(c3ccc(C(=O)NS(=O)(=O)c4ccc(NCC5CCOCC5)c([N+](=O)[O-])c4)c(Oc4cnc5[nH]ccc5c4)c3)CC2)=C(c2ccc(Cl)cc2)C1 + C=CC(=O)N1CCN(c2nc(=O)n(-c3c(C)ccnc3C(C)C)c3nc(-c4c(O)cccc4F)c(F)cc23)C(C)C1
Second compound 0.0316 µM
  IC50: 4.57 µM
Second compound 0.1 µM
  IC50: 4.7 µM
Second compound 0.316 µM
  IC50: 5.75 µM
Second compound 1 µM
  IC50: 5.28 µM
Second compound 3.16 µM
  IC50: 5.97 µM
Second compound 10 µM
  IC50: 5.96 µM
[1]
  viability, T/C: 105%
[2]
  viability, T/C: 92%
[13]
  viability, T/C: 95.4%
[14]
  viability, T/C: 85.4%
[15]
  viability, T/C: 75.2%
[16]
  viability, T/C: 2.28%
[3]
  viability, T/C: 114%
[4]
  viability, T/C: 101%
[17]
  viability, T/C: 114%
[18]
  viability, T/C: 85.7%
[19]
  viability, T/C: 80.1%
[20]
  viability, T/C: 3.17%
[5]
  viability, T/C: 104%
[6]
  viability, T/C: 100%
[21]
  viability, T/C: 97.2%
[22]
  viability, T/C: 115%
[23]
  viability, T/C: 97.3%
[24]
  viability, T/C: 6.37%
[7]
  viability, T/C: 144%
[8]
  viability, T/C: 125%
[25]
  viability, T/C: 125%
[26]
  viability, T/C: 115%
[27]
  viability, T/C: 86.5%
[28]
  viability, T/C: 6.99%
[9]
  viability, T/C: 97%
[10]
  viability, T/C: 123%
[29]
  viability, T/C: 104%
[30]
  viability, T/C: 113%
[31]
  viability, T/C: 101%
[32]
  viability, T/C: 8.7%
[11]
  viability, T/C: 115%
[12]
  viability, T/C: 143%
[33]
  viability, T/C: 162%
[34]
  viability, T/C: 119%
[35]
  viability, T/C: 93.6%
[36]
  viability, T/C: 15.4%

## COc1cc2nccc(Oc3ccc(NC(=O)C4(C(=O)Nc5ccc(F)cc5)CC4)cc3)c2cc1OC + C=CC(=O)N1CCN(c2nc(=O)n(-c3c(C)ccnc3C(C)C)c3nc(-c4c(O)cccc4F)c(F)cc23)C(C)C1
Second compound 0.0316 µM
  IC50: > 10 µM
Second compound 0.1 µM
  IC50: 6.21 µM
Second compound 0.316 µM
  IC50: 7.63 µM
Second compound 1 µM
  IC50: 9.55 µM
Second compound 3.16 µM
  IC50: > 10 µM
Second compound 10 µM
  IC50: 8.55 µM
[1]
  viability, T/C: 66.7%
[2]
  viability, T/C: 102%
[13]
  viability, T/C: 63.2%
[14]
  viability, T/C: 72.4%
[15]
  viability, T/C: 77.2%
[16]
  viability, T/C: 51.5%
[3]
  viability, T/C: 61.5%
[4]
  viability, T/C: 71%
[17]
  viability, T/C: 89.2%
[18]
  viability, T/C: 92.6%
[19]
  viability, T/C: 91.7%
[20]
  viability, T/C: 27.8%
[5]
  viability, T/C: 79.2%
[6]
  viability, T/C: 108%
[21]
  viability, T/C: 96.6%
[22]
  viability, T/C: 80.6%
[23]
  viability, T/C: 83.3%
[24]
  viability, T/C: 40.2%
[7]
  viability, T/C: 87%
[8]
  viability, T/C: 89.5%
[25]
  viability, T/C: 111%
[26]
  viability, T/C: 92.4%
[27]
  viability, T/C: 92.6%
[28]
  viability, T/C: 48.2%
[9]
  viability, T/C: 103%
[10]
  viability, T/C: 124%
[29]
  viability, T/C: 129%
[30]
  viability, T/C: 88%
[31]
  viability, T/C: 84.2%
[32]
  viability, T/C: 56.9%
[11]
  viability, T/C: 112%
[12]
  viability, T/C: 102%
[33]
  viability, T/C: 109%
[34]
  viability, T/C: 97.9%
[35]
  viability, T/C: 123%
[36]
  viability, T/C: 40.7%
